Measured values: the supplement of paper PMC10307832

Key:
Assay in all cases: relative viability (nuclei count vs DMSO), 5 days (fraction); higher = more cells survive
[1] = compound: CCn1c(-c2nonc2N)nc2c(C#CC(C)(C)O)ncc(OC[C@H]3CCCNC3)c21 + Nc1nc2[nH]cc(CCc3ccc(C(=O)N[C@@H](CCC(=O)O)C(=O)O)cc3)c2c(=O)[nH]1 [Pemetrexed] (partner 0.2 µM)
Method in brief: (§1)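 Medians of duplicate plates are given as relative viability. That measure is the nuclei count in treated wells divided by the count in vehicle wells. Counts were taken on 4× images of lung cancer cell lines in 1536-well plates, 5 days after pin-tool dosing the day after seeding with one drug alone or a fixed anchor-drug dose plus five library-drug doses (not always all listed) in √10 steps.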

[2] = compound: CCOC1=CC=CC=C1N=NC2=C(NN(C2=O)C3=NC(=CS3)C4=CC=CC=C4)C [BAM7] + Cc1nc(NC(=O)N2CCC[C@H]2C(N)=O)sc1-c1ccnc(C(C)(C)C(F)(F)F)c1 [Alpelisib] (partner 2 µM)
Method in brief: as §1

[3] = compound: CCOC1=CC=CC=C1N=NC2=C(NN(C2=O)C3=NC(=CS3)C4=CC=CC=C4)C [BAM7]
Method in brief: (§2)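 Lung cancer cell lines received five library-drug doses (not always all listed) spaced by √10, pinned on vehicle-anchored 1536-well plates after an overnight stay at 37 °C. Five days later, with no medium change, nuclei were Hoechst-stained, imaged at 4× and counted with MetaXpress. Viability is treated-well nuclei relative to vehicle-well nuclei, as a median across plates. Passing plates had control CV below 25% and at least one doubling.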

[4] = compound: CCn1c(-c2nonc2N)nc2c(C#CC(C)(C)O)ncc(OC[C@H]3CCCNC3)c21
Method in brief: as §2

NCI-H2405
relative viability ([1]; first compound 0.01 µM): 1.03 | relative viability ([1]; first compound 0.03162 µM): 1.12 | relative viability ([1]; first compound 0.1 µM): 0.964 | relative viability ([1]; first compound 0.3162 µM): 0.96 | relative viability ([1]; first compound 1 µM): 1.13 | relative viability ([2]; first compound 0.5 µM): 0.862 | relative viability ([2]; first compound 5 µM): 0.773 | relative viability ([2]; first compound 15.81 µM): 0.684 | relative viability ([2]; first compound 50 µM): 0.839 | relative viability ([3]; 0.5 µM): 0.989 | relative viability ([3]; 5 µM): 1.13 | relative viability ([3]; 15.81 µM): 1.03 | relative viability ([3]; 50 µM): 1.08 | relative viability ([4]; 0.01 µM): 1.05 | relative viability ([4]; 0.03162 µM): 0.934 | relative viability ([4]; 0.1 µM): 0.973 | relative viability ([4]; 0.3162 µM): 0.969 | relative viability ([4]; 1 µM): 0.993

NCI-H3122
relative viability ([1]; first compound 0.01 µM): 0.206 | relative viability ([1]; first compound 0.03162 µM): 0.208 | relative viability ([1]; first compound 0.1 µM): 0.201 | relative viability ([1]; first compound 0.3162 µM): 0.195 | relative viability ([1]; first compound 1 µM): 0.2 | relative viability ([2]; first compound 0.5 µM): 0.881 | relative viability ([2]; first compound 5 µM): 0.822 | relative viability ([2]; first compound 15.81 µM): 0.804 | relative viability ([2]; first compound 50 µM): 0.763 | relative viability ([3]; 0.5 µM): 1.02 | relative viability ([3]; 5 µM): 1.09 | relative viability ([3]; 15.81 µM): 1.01 | relative viability ([3]; 50 µM): 1.01 | relative viability ([4]; 0.01 µM): 1 | relative viability ([4]; 0.03162 µM): 0.973 | relative viability ([4]; 0.1 µM): 1.06 | relative viability ([4]; 0.3162 µM): 0.991 | relative viability ([4]; 1 µM): 1.01

PC-3 [JPC-3]
relative viability ([1]; first compound 0.01 µM): 1.01 | relative viability ([1]; first compound 0.1 µM): 1.03 | relative viability ([1]; first compound 0.3162 µM): 0.946 | relative viability ([1]; first compound 1 µM): 1.17 | relative viability ([2]; first compound 0.5 µM): 1.02 | relative viability ([2]; first compound 5 µM): 0.99 | relative viability ([2]; first compound 15.81 µM): 0.876 | relative viability ([2]; first compound 50 µM): 0.907 | relative viability ([3]; 0.5 µM): 0.967 | relative viability ([3]; 5 µM): 1.02 | relative viability ([3]; 15.81 µM): 0.974 | relative viability ([3]; 50 µM): 0.917 | relative viability ([4]; 0.01 µM): 1.02 | relative viability ([4]; 0.03162 µM): 1.02 | relative viability ([4]; 0.1 µM): 1.05 | relative viability ([4]; 0.3162 µM): 0.996 | relative viability ([4]; 1 µM): 1.08

PC-14
relative viability ([1]; first compound 0.01 µM): 0.127 | relative viability ([1]; first compound 0.03162 µM): 0.126 | relative viability ([1]; first compound 0.1 µM): 0.14 | relative viability ([1]; first compound 0.3162 µM): 0.136 | relative viability ([1]; first compound 1 µM): 0.147 | relative viability ([2]; first compound 0.5 µM): 0.983 | relative viability ([2]; first compound 5 µM): 0.841 | relative viability ([2]; first compound 15.81 µM): 0.915 | relative viability ([2]; first compound 50 µM): 0.906 | relative viability ([3]; 0.5 µM): 1.04 | relative viability ([3]; 5 µM): 1.06 | relative viability ([3]; 15.81 µM): 1 | relative viability ([3]; 50 µM): 1.01 | relative viability ([4]; 0.01 µM): 0.937 | relative viability ([4]; 0.03162 µM): 1 | relative viability ([4]; 0.1 µM): 1.11 | relative viability ([4]; 0.3162 µM): 0.954 | relative viability ([4]; 1 µM): 1.03

RERF-LC-KJ
relative viability ([1]; first compound 0.01 µM): 0.486 | relative viability ([1]; first compound 0.03162 µM): 0.442 | relative viability ([1]; first compound 0.1 µM): 0.432 | relative viability ([1]; first compound 0.3162 µM): 0.478 | relative viability ([1]; first compound 1 µM): 0.488 | relative viability ([2]; first compound 0.5 µM): 0.814 | relative viability ([2]; first compound 5 µM): 0.823 | relative viability ([2]; first compound 15.81 µM): 0.716 | relative viability ([2]; first compound 50 µM): 0.766 | relative viability ([3]; 0.5 µM): 0.94 | relative viability ([3]; 5 µM): 0.913 | relative viability ([3]; 15.81 µM): 0.745 | relative viability ([3]; 50 µM): 0.812 | relative viability ([4]; 0.01 µM): 0.959 | relative viability ([4]; 0.03162 µM): 0.97 | relative viability ([4]; 0.1 µM): 0.99 | relative viability ([4]; 0.3162 µM): 0.966 | relative viability ([4]; 1 µM): 1.05

SK-LU-1
relative viability ([1]; first compound 0.01 µM): 0.869 | relative viability ([1]; first compound 0.03162 µM): 0.985 | relative viability ([1]; first compound 0.1 µM): 0.823 | relative viability ([1]; first compound 0.3162 µM): 0.929 | relative viability ([1]; first compound 1 µM): 0.855 | relative viability ([2]; first compound 0.5 µM): 0.703 | relative viability ([2]; first compound 5 µM): 1.1 | relative viability ([2]; first compound 15.81 µM): 0.955 | relative viability ([2]; first compound 50 µM): 1.09 | relative viability ([3]; 0.5 µM): 1.04 | relative viability ([3]; 5 µM): 1.24 | relative viability ([3]; 15.81 µM): 0.962 | relative viability ([3]; 50 µM): 1.13 | relative viability ([4]; 0.01 µM): 1.06 | relative viability ([4]; 0.03162 µM): 1.09 | relative viability ([4]; 0.1 µM): 0.88 | relative viability ([4]; 0.3162 µM): 0.953 | relative viability ([4]; 1 µM): 0.966

SK-MES-1
relative viability ([1]; first compound 0.01 µM): 0.971 | relative viability ([1]; first compound 0.03162 µM): 0.945 | relative viability ([1]; first compound 0.1 µM): 0.947 | relative viability ([1]; first compound 0.3162 µM): 0.909 | relative viability ([1]; first compound 1 µM): 0.983 | relative viability ([2]; first compound 0.5 µM): 1.1 | relative viability ([2]; first compound 5 µM): 0.9 | relative viability ([2]; first compound 15.81 µM): 0.985 | relative viability ([2]; first compound 50 µM): 1.01 | relative viability ([3]; 0.5 µM): 1.04 | relative viability ([3]; 5 µM): 1.08 | relative viability ([3]; 15.81 µM): 0.973 | relative viability ([3]; 50 µM): 1.03 | relative viability ([4]; 0.01 µM): 0.998 | relative viability ([4]; 0.03162 µM): 1.01 | relative viability ([4]; 0.1 µM): 1.02 | relative viability ([4]; 0.3162 µM): 0.944 | relative viability ([4]; 1 µM): 0.993

SW 1573
relative viability ([1]; first compound 0.01 µM): 0.772 | relative viability ([1]; first compound 0.03162 µM): 0.773 | relative viability ([1]; first compound 0.1 µM): 0.765 | relative viability ([1]; first compound 0.3162 µM): 0.646 | relative viability ([1]; first compound 1 µM): 0.736 | relative viability ([2]; first compound 0.5 µM): 0.777 | relative viability ([2]; first compound 5 µM): 0.833 | relative viability ([2]; first compound 15.81 µM): 0.85 | relative viability ([2]; first compound 50 µM): 0.75 | relative viability ([3]; 0.5 µM): 1.03 | relative viability ([3]; 5 µM): 1.18 | relative viability ([3]; 15.81 µM): 0.969 | relative viability ([3]; 50 µM): 1.08 | relative viability ([4]; 0.01 µM): 0.98 | relative viability ([4]; 0.03162 µM): 0.932 | relative viability ([4]; 0.1 µM): 0.871 | relative viability ([4]; 0.3162 µM): 0.677 | relative viability ([4]; 1 µM): 0.777

UMC-11
relative viability ([1]; first compound 0.01 µM): 0.804 | relative viability ([1]; first compound 0.03162 µM): 0.758 | relative viability ([1]; first compound 0.1 µM): 0.749 | relative viability ([1]; first compound 0.3162 µM): 0.722 | relative viability ([1]; first compound 1 µM): 0.758 | relative viability ([2]; first compound 0.5 µM): 1.11 | relative viability ([2]; first compound 5 µM): 1.12 | relative viability ([2]; first compound 15.81 µM): 0.992 | relative viability ([2]; first compound 50 µM): 0.989 | relative viability ([3]; 0.5 µM): 1.01 | relative viability ([3]; 5 µM): 1.1 | relative viability ([3]; 15.81 µM): 1.06 | relative viability ([3]; 50 µM): 1.07 | relative viability ([4]; 0.01 µM): 0.955 | relative viability ([4]; 0.03162 µM): 1.02 | relative viability ([4]; 0.1 µM): 0.957 | relative viability ([4]; 0.3162 µM): 0.982 | relative viability ([4]; 1 µM): 0.943
